In patent EP2181708A1, “Use of Valproate for reducing CHOP levels, particularly in a mammal having SCI” (Universitat Autonoma de Barcelona, priority 2008, dated 2010):

Legend:
[1] = system: CHOP; experiment: Tunicamycin-induced ER stress in primary fibroblasts, Western blot of CHOP; assay type: cell-based, rat; conditions: primary fibroblast cells, 3 µg/ml tunicamycin, valproate
Description: Primary fibroblasts obtained from rat sciatic nerve and HEK cell line were cultured in Dulbecco's modified Eagle's/F-12 medium supplemented with 10% fetal calf serum (Gibco). Fibroblasts were treated with 3 µg/mL of tunicamycin (Sigma) for 4 h and harvested in RIPA buffer for protein extraction.
We have recently reported that SCI triggers an unbalanced UPR characterized by unchanged levels of BiP/Grp78 levels but progressive accumulation of the pro-apoptotic protein CHOP, with maximal CHOP levels found at 3 days post-injury in the weight-drop contusion model (Penas et al, 2007). In this study, we used a contusion model using an impactor device to specifically control the force (either 150 KDyn or 250 KDyn) to be apply on the T8 laminectomized spinal cord segment. We analyzed the spinal cord 8 mm-length segment that includes the lesion epicenter from sham-operated animals and from VPA treated or vehicle treated SCI animals at 3 days after operation. […] Thus, we increased the amount of VPA administered to 300 mg/kg every 12 h, as reported previously for a brain stroke rat model (Kim et al, 2007), and analyzed the effect using two different contusion forces of 150 and 250 KDyn. We observed that the levels of CHOP were directly proportional to the severity of the lesion; the more severe, the higher the level. […]

[2] = system: tibialis anterior muscle; experiment: Electrophysiological tests (H/M ratio, motor evoked potentials) after spinal cord contusion; assay type: in vivo, Sprague-Dawley rats
Description: (§1) Adult females Sprague-Dawley rats aged 11 weeks (220-250 g) were anesthetized with pentobarbital (40 mg/kg i.p.). When unresponsive, the vertebral column was exposed and a laminectomy carried out at T8-T9 levels. Rostral T7 and caudal T10 vertebral bodies were clamped with Adson stabilizing forceps, and carefully adjusted to level the spinal cord in the horizontal plane. A contusion injury was performed using the Infinite Horizon impactor device (Precision Scientific Instruments, Lexington, KY). The stainless steel impounder tip was placed at 3-4 mm above the exposed spinal cord, and then a fast impact produced applying forces of 150 or 250 kilodynes (KDyn) to the exposed spinal cord. The wound was sutured with 5-0 silk thread in the muscular plane and the skin was closed with small clips and disinfected with povidone iodine solution. Sham-operated animals received the same surgical procedure but sustained no impact injury; the spinal cord was left exposed for 5 min. The animals were maintained in a warm environment until full recovery, and received preventive antibiotic (amoxicyline) and analgesic (buprenorphine) treatment. All animals were kept under standard conditions of light and temperature and fed with food and water ad libitum. The procedures involving animals were approved by the Ethics Committee of our institution, and followed the European Communities Council Directive 86/609/EEC.
VPA was intraperitoneally administered at an initial dose of 150 mg/kg by 3 h after surgery, and then a dose of 300 mg/Kg either every 24 h or every 12 h during the first week post-surgery, following by a dose of 300 mg/Kg every 24 h for the next two weeks. […]
Electrophysiological tests were performed at 14 and 28 days after operation. […] The H/M amplitude ratio was calculated. Motor evoked potentials (MEPs) were elicited by transcranial stimulation with two needle electrodes placed subcutaneously over the skull, delivering pulses of 0.1 ms duration and 25 mA intensity, and recorded from the tibialis anterior muscle (Garcia-Alias et al., 2003).

[3] = system: spinal cord; experiment: Histological analysis of lesion volume, tissue sparing and myelin after SCI; assay type: in vivo, Sprague-Dawley rats
Description: as §1
VPA was intraperitoneally administered at an initial dose of 150 mg/kg by 3 h after surgery, and then a dose of 300 mg/Kg either every 24 h or every 12 h during the first week post-surgery, following by a dose of 300 mg/Kg every 24 h for the next two weeks. Groups of rats subjected to SCI or sham operation received VPA or saline injections following the same regime. Experiments were approved by the Ethics Committee at the Universitat Autònoma de Barcelona, and followed the European Communities Council Directive 86/609/EEC
At 3 or 35 days post-surgery, rats were perfused transcardially with 4% paraformaldehyde in 0.1M phosphate buffer saline (PBS, pH 7.4). […]

[4] = epicenter and adjacent section of the spinal cord, 35 days

Structure (SMILES): CCCC(CCC)C(=O)O [VPA, 2-propylpentanoic acid]
- CHOP accumulation promoted by tunicamycin [1]: can be attenuated
- mean amplitudes of MEPs ([2]; 14 and 28 days postlesion, vs group control): slightly higher
- mean H/M amplitude ratio ([2]; 14 days, injured rats): about 9%
- mean H/M amplitude ratio ([2]; 28 days, control group 20%): 16%
- extent of myelin loss ([3]; 2 mm from the epicenter, cresyl violet and luxol fast blue, 35 dpo): markedly reduced
- area of total tissue preserved [3, 4]: significantly increased
- area of white matter preserved [3, 4]: significantly increased
